Experimental data taken from patent publication US4272507A, “Phenylaminothiophenacetic acids, their synthesis, compositions and use” (priority 1978, dated 1981).

Columns and labels:
[1] = versus phenylbutazone; Alpermann 1970, 1972; cited from earlier work
[2] = system: carrageenin edema of the hind paw of rats; assay: Acute antiphlogistic action: carrageenin edema of the hind paw of rats after single oral administration; details: for ED50: Rattus norvegicus, po, read-out: ED50 (dose which causes a maximum edema inhibition of 50%); for Therapeutic quotient LD50/ED50: carrageenin edema, LD50 7 days oral; for Therapeutic quotient LD50/ED50 / Maximum inhibition of carrageenin edema within 7 hours after oral administration: rats
Description: (§1) Biol. Med., 111 (1962) 544]}, on chronic inflammatory processes {Cotton pellet test on rats [Winter et al.: J. Pharmacol. exp. Therap., 141 (1963) 369]} and on adjuvant arthritis [based on the method of Perrine et al., Brit. J. Pharmacol., 21 (1963) 127] is determined.
The influence of the compounds to be tested on carrageenin edema of the hind paw of rats was determined as follows:
The rats are kept at 24° C.
The paw volume of each rat is determined (2 to 3 individual measurements in each case) before edema provocation and at hourly intervals for 7 hours after edema provacation. The average percentage paw swelling of each treated group determined at the specified times after the carrageenin injection is related to that of the untreated control group (=100%).
The maximum percentage edema inhibition serves as a measure of the antiphlogistic action.
The paw volume is determined plethysmometrically. Measuring principle: the volume of liquid displaced through the paw of the rat is recorded digitally via an electromechanical pressure transducer (Statham P 23 V, 0-200 mm Hg).
The doses indicated for the compounds tested were administered in a volume of liquid of 20 ml/kg.

[3] = system: adjuvant arthritis in rats; assay: Antiarthritic action: adjuvant arthritis in rats (Mycobacterium butyricum)
Description: as §1
The influence of the compounds to be tested on polyarthritis in rats caused by Mycobacterium butyricum (so-called "adjuvant arthritis") was determined using the experimental arrangement hereafter described: based on the method described by NEWBOULD and PERRINE et al. [NEWBOULD, B. B.; Brit. J. Pharmacol. 21, 127 (1963); and PERRINE, J. W. and TAKESUE, E. I.; Arch. int. Pharmacodyn., 174, 192 to 198 (1968)], so-called adjuvant arthritis, which manifests itself chiefly in a severe swelling of the tail (primary lesion) and of the paws (secondary lesion), is caused in rats by intradermal injection of a Mycobact. butyricum suspension in liquid paraffin into the base of the tail. Antiphlogistic agents inhibit this swelling reaction.

[4] = system: pain reaction provoked in rats by bending an inflamed ankle (AgNO3 arthritis); assay: animal or person; format: in vivo
Description: Based on the method of HOFFMEISTER et al. [Arzneim. Forsch., 24, (1974) 600], 0.2 ml of a 1% strength silver nitrate solution is injected into the ankle joint (inside) of the right hind paw of female Sprague-Dawley rats (each animal weighing about 160 to 180 g) under ether anaesthesia. The animals are kept at 24° C. and are fed Altromin®R and water ad libitum. After the AgNO3 injection, almost all the animals (90 to 95%) can be made to cry out by moderate bending of the ankle joint. All the animals reacting positively are collected into groups of 10 animals. The compounds to be tested are administered orally in a volume of liquid of 10 ml/kg immediately after administration of the AgNO3; the untreated control animals receive the corresponding amount of tapwater.
Over a period of 4 hours after administration of the substance, the number of animals reacting is determined at half hourly intervals.
The maximum percentage of the protected animals over a period of 4 hours after administration of the substance [relative to the number of animals in the control group reacting (=100%)] serves as a measure of the analgesic action.

[5] = system: yeast-induced fever in rats; assay: Antipyretic action: yeast-induced fever in rats; format: in vivo, rats (female Sprague-Dawley); details: rats; for ED (1.5 degC): Rattus norvegicus, po, perorally, single dose, read-out: ED1.5 (dose which causes a maximum reduction in yeast-induced fever of 1.5° C.); for Therapeutic quotient LD50/ED2.5: yeast-induced fever, LD50 7 days
Description: The antipyretic action is determined by the influence of the compounds to be tested on yeast-induced fever in rats.
Hyperthermia is produced in female Sprague-Dawley rats (in groups of 5 animals; weight of each animal: 160 to 180 g) by subcutaneous injection (neck) of 10 ml/kg of a 20 percent strength aqueous brewer's yeast suspension (brewer's yeast "Heliosan"/Hefereformwerk Radolfzell). 24 hours after the yeast injection, the compounds to be tested are administered orally to the animals in a volume of liquid of 5 ml/kg, and a control group receives the corresponding amount of tapwater. The feed (Altromin®R, water ad libitum) was withdrawn from the rats 18 hours beforehand. The rats are kept at about 23° C.
The body temperature is recorded 1 hour before administration of the substance and at hourly intervals after administration of the substance.
[…] The body temperature is measured with a temperature probe (Tastomed H, Braun electronic).

in vivo = details: rat, po
rats = details: 7 days (Table 6)
[6] = system: formation of granulation tissue after subcutaneous implantation of cotton; assay: Chronic antiphlogistic action: cotton pellet test (formation of granulation tissue) in rats; details: rats; for Inhibition of the formation of granulation tissue after treatment for 7 days: sodium salt
Description: as §1
Experimental procedure for investigating the influence of the compounds to be tested on the formation of granulation tissue after implantation of cotton in rats (so-called cotton pellet method):
1 cotton pellet (manufacturer: Messrs. Hartmann/Heidenheim; cotton pellets size 2, No. 4865/2) which weighs 13.0±0.5 mg and has been impregnated beforehand with 0.1 ml of a solution of 0.5 mg of penicillin G and 0.8 mg of streptomycin sulfate/1 ml of distilled water is in each case implanted subcutaneously into the shoulder-blade region, on both sides, of male Sprague-Dawley rats (groups of 8 animals each; weight of each animal: 150 to 170 g) under diethyl ether anaesthesia and under sterile conditions. The cut skin is closed by means of clamps.
The compounds to be tested (in the form of the sodium salt in aqueous solution) or the corresponding amount (5 ml/kg/day) of tapwater (=control group) are administered orally each day on seven successive days. On the eighth day, the animals are killed and the cotton granules are exposed carefully, that is to say preserving the fibrous tissue capsule, dried (15 hours at 120°) and weighed. By substracting the weight of the cotton pellets, the amount of newly formed granulation tissue is obtained.
The percentage reduction in the average granuloma dry weight of a treated group compared with the control group (=100%) serves as a measure of the antiproliferative action of a compound.

[7] = AgNO3 arthritis pain, LD50 7 days oral, rats

Row | SMILES | actions [1] | ED50 [2] [mg/kg] | Therapeutic quotient LD50/ED50 [2] | ED (1.5 degC) [5] [mg/kg] | LD50 at 168 h (in vivo) [mg/kg] | Maximum inhibition of carrageenin edema within 7 hours after oral administration ([2]; single oral dose 3.0 mg/kg) [%] | Maximum reduction in yeast-induced fever over a period of 7 hours ([5]; single oral dose 0.3 mg/kg) [°C] | Therapeutic quotient LD50/ED2.5 [5] | LD50, lethal action after administration for 7 days (rats) [mg/kg/day] | also measured
1 | Cc1cccc(Nc2cscc2C(=O)O)c1Cl [2-chloro-3-methylphenyl derivative] | superior to those of phenylbutazone | – | – | – | – | – | – | – | – | –
2 | Cc1c(Cl)cccc1Nc1cscc1C(=O)O [2-methyl-3-chlorophenyl derivative] | superior to those of phenylbutazone | – | – | – | – | – | – | – | – | –
3 | O=C(O)c1cscc1Nc1c(Cl)cccc1Cl [Compound 1, 3-(2,6-dichloroanilino)thiophen-4-carboxylic acid] | superior to those of phenylbutazone | 56 | 2.1 | 8.2 | 120 | – | – | – | – | Maximum inhibition of carrageenin edema within 7 hours after oral administration ([2]; single oral dose 10.0 mg/kg): 31%; Maximum inhibition of carrageenin edema within 7 hours after oral administration ([2]; single oral dose 100.0 mg/kg): 57%; ED25 ([3]; Rattus norvegicus, po, 120 h, read-out: ED25 (inhibition of adjuvant arthritis of 25%)): 9 mg/kg/day; therapeutic quotient LD50/ED25 ([3]; adjuvant arthritis, LD50 7 days oral, rats): 13.3; Therapeutic quotient LD50/ED50 [4, 7]: 0.86; therapeutic quotient LD50/ED25 [4, 7]: 4; ED25 ([4]; Rattus norvegicus, po, read-out: ED25 (dose which completely suppresses the pain reaction in 25% of the animals)): 30 mg/kg; ED50 ([4]; Rattus norvegicus, po, rats, perorally, at the time of maximum action, read-out: ED50 (dose which completely suppresses the pain reaction in 50% of the animals)): 140 mg/kg; Inhibition of the pain reaction ([4]; rats, single oral dose 3 mg/kg): 10%; Inhibition of the pain reaction ([4]; rats, single oral dose 20 mg/kg): 20%; Inhibition of the pain reaction ([4]; rats, single oral dose 100 mg/kg): 40%; Inhibition of the pain reaction ([4]; rats, single oral dose 200 mg/kg): 60%; Maximum reduction in yeast-induced fever over a period of 7 hours ([5]; single oral dose 1 mg/kg): 0 °C; Maximum reduction in yeast-induced fever over a period of 7 hours ([5]; single oral dose 3 mg/kg): 0.6 °C; Maximum reduction in yeast-induced fever over a period of 7 hours ([5]; single oral dose 10 mg/kg): 1.7 °C; Maximum reduction in yeast-induced fever over a period of 7 hours ([5]; single oral dose 30 mg/kg): 2.1 °C
4 | Cc1cccc(Cl)c1Nc1cscc1CC(=O)O [Compound 4, 4-(2-chloro-6-methylanilino)-3-thiophenacetic acid] | – | 3 | > 6.7 | ~0.3 | > 20 | 50 | 1.4 | > 66.7 | > 20 | –
5 | Cc1ccc(Cl)c(Nc2cscc2CC(=O)O)c1Cl [Compound 5, 4-(2,6-dichloro-3-methylanilino)-3-thiophenacetic acid] | – | – | – | < 0.3 | 8 | – | 1.7 | > 26.7 | – | Therapeutic quotient LD50/ED20 ([6]; cotton pellet test, LD50 7 days oral): 5; Inhibition of the formation of granulation tissue after treatment for 7 days ([6]; 7 x 1.0 mg/kg/day orally): 16%; Inhibition of the formation of granulation tissue after treatment for 7 days ([6]; 7 x 3.0 mg/kg/day orally): 26%
6 | O=C(O)Cc1sccc1Nc1c(Cl)cccc1Cl [Compound 6, 3-(2,6-dichloroanilino)-2-thiophenacetic acid] | – | ~3 | > 6.7 | < 0.3 | > 20 | 52 | 1.7 | > 66.7 | > 20 | –
